Data set [1] relates to MHCC97-H cells. Description: Assessment of cell survival (MTT). In kind it is cell-based. The following applies: Homo sapiens, MHCC97H, 48 h. The procedure:
(§1) After transfection or treated with potential inhibitor of cyp3a4, HCC cells were treated with a series concentrations of sorafenib, lenvatinib, cabozantinib, regorafenib, anlotinib, or apatinib (10 μmol/L, 3 μmol/L, 1 μmol/L, 0.3 μmol/L, 0.1 μmol/L, 0.03 μmol/L, or 0.01 μmol/L). After 48 h, MTT was performed to measure ell survival, and the IC50 value of each agent was calculated ([36]–[38]).
The *P < 0.05 being statistically significant between groups.

The nature of the next data set: in vitro. The following applies: human. As to the method: (§2) HCC cells were used to examine the rate of elimination of sorafenib ([18], [19], [34], [35]). For cell-based experiments, HCC cells were treated with 1 μmol/L of sorafenib for 12 h. After treatment, the cells were harvested at a series of time-points. For in vivo experimentation, HCC cells were cultured and subcutaneously injected into mice to generate tumors. When tumor volume reached 2000 mm^3, a solution of sorafenib was directly injected into the tumors. After injection, the tumors were excised at a series of time-points. Next, sorafenib was extracted from MHCC97-H cells or tumors using the acetonitrile (ACN). The sustaining amount of sorafenib at each time-point was measured using liquid chromatography–mass spectrometry/mass spectrometry (LC-MS/MS) and the in vitro/in vivo half-life of sorafenib was determined ([18], [19], [34], [35]).
(§3) SPSS 9.0 statistical software (IBM Corporation, Armonk, NY, USA) was used for all statistical analyses. Statistics were calculated using two-way ANOVA with the Bonferroni correction. IC50 values and the half-lie values (t1/2 values) were calculated using Origin software (Origin 6.1; OriginLab Corporation, Northampton, MA, USA). The *P < 0.05 being statistically significant between groups. The heat-map of the qPCR results were obtained according to the methods by Zhou et al. ([41]) and Yin et al. ([42]).

Another data set in a line: in vivo. The settings on record: nude, mouse, in vivo, t1/2 of Sorafenib. The procedure: as §2, §3
For data set [2], the system named is subcutaneous tumors formed by MHCC97-H cells. In words: in vivo. The procedure: as §2, §3
A further data set deals with BEL-7402. Description: Assessment of cell survival (MTT). The format is cell-based. The settings on record: Homo sapiens, Bel-7402, 48 h. The procedure: as §1, §3
A further data set concerns SMMC-7721. Description: Assessment of cell survival (MTT). In kind it is cell-based. The settings on record: Homo sapiens, SMMC-7721, 48 h. As to the method:
as §1, §3

Data set [3] concerns MHCC97-H cells. In words: Nude mouse subcutaneous tumor model. The format is in vivo, nude mice. As to the method: All animal experiments were reviewed approved by the Institutional Animal Care and Use Committee, the Fifth Medical Center, Chinese PLA. All animal experiments were performed in accordance with the UK Animals (Scientific Procedures) Act, 1986 and the associated guidelines. Female nude mice were purchased from the Si-Bei-Fu Corporation, Beijing China. Following transfection, MHCC97-H cells were prepared as a single-cell suspension and subcutaneously injected into nude mice ([39], [40]). The mice orally received sorafenib once every two days. Tumors from the mice were harvested, and the volumes and weights were measured ([39], [40]).

Data set [4] can be described thus: Assessment of sorafenib elimination in cultured HCC cells (LC-MS/MS). The format is in vitro ADME. The settings on record: human, read-out: t1/2 values (converted). As to the method: as §2, §3
For data set [5], the system named is patients with advanced HCC. In kind it is in vivo, human. The following applies: advanced HCC patients receiving sorafenib.
From the text: The endogenous mRNA levels of cyp3a4 in HCC clinical specimens were identified using quantitative polymerase chain reaction (qPCR) in accordance with methods described by Wang et al. ([20]) and Ma et al. ([20], [25]). […] The results (the relative expression level [folds of β-Actin]) of PXR or CAR was shown as heat-map.
The mark [6] stands for this setting: control miRNA, read-out: IC50 values of the agents on MHCC97-H cells.
The mark [7] stands for this setting: miR-4277 + CYP3A4^Mut, read-out: IC50 values of the agents on MHCC97-H cells.
Where [8] appears, read: miR-4277 + CYP3A4^Mut-1, read-out: IC50 values of the agents on MHCC97-H cells.
Where [9] appears, read: miR-4277 + CYP3A4^Mut-2, read-out: IC50 values of the agents on MHCC97-H cells.
[10] abbreviates: miR-4277, read-out: IC50 values of the agents on MHCC97-H cells.
The mark [11] stands for this setting: CYP3A4 mRNA expression High (n = 26).
[12] abbreviates: CYP3A4 mRNA expression Low (n = 26).

Where two headings read alike, the source gives them in different places.

As to `COc1cc2c(Oc3ccc4[nH]c(C)cc4c3F)ccnc2cc1OCC1(N)CC1` [Anlotinib], the IC50 (usually the concentration needed to halve the response being measured) in the data set with MHCC97-H cells [1] (setting [6]) was 750 ± 30 nM; in the data set on MHCC97-H cells [1] (setting [7]) it was 780 ± 550 nM; in the data set with MHCC97-H cells [1] (setting [8]), 300 ± 120 nM; in the data set on MHCC97-H cells [1] (setting [9]), 450 ± 350 nM; in the data set with MHCC97-H cells [1] (setting [10]) it was 100 ± 10 nM.

As for `N#CC1(c2ccc(NC(=O)c3cccnc3NCc3ccncc3)cc2)CCCC1` [Apatinib], the IC50 in the data set on MHCC97-H cells [1] (setting [6]) stood at 960 ± 330 nM; in the data set on MHCC97-H cells [1] (setting [7]), 980 ± 370 nM; in the data set on MHCC97-H cells [1] (setting [8]), 520 ± 270 nM; in the data set with MHCC97-H cells [1] (setting [9]) it was 460 ± 300 nM; in the data set on MHCC97-H cells [1] (setting [10]), 260 ± 70 nM.

For `COc1cc2nccc(Oc3ccc(NC(=O)C4(C(=O)Nc5ccc(F)cc5)CC4)cc3)c2cc1OC` [Cabozantinib], the IC50 in the data set with MHCC97-H cells [1] (setting [6]) amounted to 510 ± 190 nM; in the data set with MHCC97-H cells [1] (setting [7]) it was 560 ± 150 nM; with MHCC97-H cells [1] (setting [8]), 250 ± 60 nM; in the data set with MHCC97-H cells [1] (setting [9]) it was 300 ± 210 nM; in the data set with MHCC97-H cells [1] (setting [10]), 100 ± 40 nM.

For the molecule `COc1cc2nccc(Oc3ccc(NC(=O)NC4CC4)c(Cl)c3)c2cc1C(N)=O` [Lenvatinib], the IC50 with MHCC97-H cells [1] (setting [6]) stood at 550 ± 200 nM; in the data set with MHCC97-H cells [1] (setting [7]) it was 600 ± 200 nM; in the data set on MHCC97-H cells [1] (setting [8]), 410 ± 10 nM; in the data set with MHCC97-H cells [1] (setting [9]) it was 280 ± 110 nM; with MHCC97-H cells [1] (setting [10]), 120 ± 60 nM.

For `CNC(=O)c1cc(Oc2ccc(NC(=O)Nc3ccc(Cl)c(C(F)(F)F)c3)c(F)c2)ccn1` [Regorafenib], the IC50 in the data set on MHCC97-H cells [1] (setting [6]) amounted to 670 ± 490 nM; in the data set on MHCC97-H cells [1] (setting [7]) it was 710 ± 280 nM; in the data set on MHCC97-H cells [1] (setting [8]), 330 ± 320 nM; in the data set with MHCC97-H cells [1] (setting [9]), 350 ± 90 nM; with MHCC97-H cells [1] (setting [10]) it was 220 ± 40 nM.

With `CNC(=O)c1cc(Oc2ccc(NC(=O)Nc3ccc(Cl)c(C(F)(F)F)c3)cc2)ccn1` [Sorafenib], the half-life at 1 μmol/L was 21.6 ± 1.34 h in “in vitro”; 23.6 ± 0.7 h in the data set “in vitro” (MHCC97-H cells (HCC cell line)); 38.5 ± 9.97 h in the data set “in vitro” (MHCC97-H cells (HCC cell line) transfected with miR-4277); 19.9 ± 2.71 h in the data set “in vitro” (MHCC97-H cells (HCC cell line) with miR-4277 + CYP3A4^Mut); 22.1 ± 6.59 h in the data set “in vitro” (MHCC97-H cells (HCC cell line) with miR-4277 + CYP3A4^Mut-1); 24.7 ± 8.63 h in the data set “in vitro” (MHCC97-H cells (HCC cell line) with miR-4277 + CYP3A4^Mut-2). The half-life at 1 μmol/L in [4] (BEL-7402 cells (HCC cell line) with miR-4277 + CYP3A4^Mut, BEL-7402, miR-4277 + CYP3A4^Mut) was 26.4 ± 3.79 h; in data set [4] (BEL-7402 cells (HCC cell line) with miR-4277, BEL-7402, miR-4277), 42.4 ± 3.33 h; in [4] (BEL-7402 cells (HCC cell line), BEL-7402, control), 28.2 ± 8.67 h; in [4] (HepG2 cells (HCC cell line) with miR-4277 + CYP3A4^Mut, HepG2, miR-4277 + CYP3A4^Mut) it was 25.7 ± 4.47 h; in data set [4] (HepG2 cells (HCC cell line) with miR-4277, HepG2, miR-4277) it was 56.4 ± 1.9 h; in data set [4] (HepG2 cells (HCC cell line), HepG2, control), 30.3 ± 3.31 h. Moreover, the half-life at 1 μmol/L in data set [4] (SMMC-7721 cells (HCC cell line) with miR-4277 + CYP3A4^Mut, SMMC-7721, miR-4277 + CYP3A4^Mut) was 27.4 ± 6.93 h; in data set [4] (SMMC-7721 cells (HCC cell line) with miR-4277, SMMC-7721, miR-4277) it was 46.2 ± 2.88 h; in [4] (SMMC-7721 cells (HCC cell line), SMMC-7721, control), 25.7 ± 2.43 h. In addition, the half-life in “in vivo” is 45.7 ± 5.31 h. In addition, the “t1/2 of Sorafenib” value was determined as 72.79 ± 7.52 h in data set [2] (nude, mouse, in vivo); 52.38 ± 16.19 h in data set [2] (subcutaneous MHCC97-H tumors, miR-4277 + CYP3A4^Mut-1, sorafenib injected into tumors); 36.67 ± 12.58 h in [2] (subcutaneous MHCC97-H tumors, miR-4277 + CYP3A4^Mut, sorafenib injected into tumors). For the same molecule, the IC50 with BEL-7402 (BEL-7402, control) worked out at 1790 ± 180 nM; in the data set on BEL-7402 (BEL-7402, miR-4277), 280 ± 50 nM; in the data set with BEL-7402 (BEL-7402, miR-4277 + CYP3A4^Mut), 2880 ± 350 nM; in the data set with SMMC-7721 (SMMC-7721, control) it was 1950 ± 540 nM; in the data set with SMMC-7721 (SMMC-7721, miR-4277), 730 ± 330 nM; in the data set with SMMC-7721 (SMMC-7721, miR-4277 + CYP3A4^Mut) it was 1920 ± 550 nM. For the same molecule, the IC50 stood at 700 ± 90 nM in the data set with MHCC97-H cells [1] (MHCC97-H cells, control miRNA, read-out: IC50 of Sorafenib); 920 ± 200 nM with MHCC97-H cells [1] (MHCC97-H cells, miR-4277 + CYP3A4^Mut, read-out: IC50 of Sorafenib); 220 ± 140 nM in the data set with MHCC97-H cells [1] (MHCC97-H cells, miR-4277 + CYP3A4^Mut-1, read-out: IC50 of Sorafenib); 350 ± 50 nM in the data set on MHCC97-H cells [1] (MHCC97-H cells, miR-4277 + CYP3A4^Mut-2, read-out: IC50 of Sorafenib); 150 ± 10 nM in the data set with MHCC97-H cells [1] (MHCC97-H cells, miR-4277, read-out: IC50 of Sorafenib); 680 ± 110 nM with MHCC97-H cells [1] (Solvent control (no CYP3A4 inhibitor), read-out: Sorafenib on MHCC97-H IC50 values). The “subcutaneous growth of MHCC97-H cells” value in the data set with MHCC97-H cells [3] (0.5 mg/kg dose of sorafenib, oral, control-transfected cells) is recorded as “had no effect”. In addition, in the data set on MHCC97-H cells [3] (oral sorafenib once every two days, indicated doses, nude mice), the “subcutaneous growth of HCC cells (tumor volumes, tumor weights)” value is “inhibited the subcutaneous growth of HCC cells in a dose-dependent manner”. Further, the “OS (overall survival)” value in data set [5] (setting [11]) is on record as 8.0 M; in data set [5] (setting [12]), 15.0 M. Besides, the “TTP (time to progress)” value in data set [5] (setting [11]) came to 9.0 M; in [5] (setting [12]), 11.0 M.

These data come from publication PMC8350395, “Hsa-miR-4277 Decelerates the Metabolism or Clearance of Sorafenib in HCC Cells and Enhances the Sensitivity of HCC Cells to Sorafenib by Targeting cyp3a4” (Frontiers in Oncology, 2021).
